Values quoted from earlier work as cited in patent publication US20240279190A1, “COMPOUNDS FOR MODULATING PLATELET-TYPE 12-(S)-LIPOXYGENASE AND METHODS OF USE FOR SAME” (The Regents of The University of California, priority 2021, published 2024).

System: human islets
Conditions: 10 μM; different batches of human islets; cited from earlier work

Substance: ML355
- GSIS effect in a similar experiment: comparable results were observed
